Measured values: patent US20100196926A1, “Combined Method And Kit For The Sequential Measurement of (1) The Enzymatically Active Fraction And (2) The Total Amount Of An Enzyme” (UNIVERSITE DE LIEGE, priority 2007, published 2010)

Test system: activated equine neutrophils
Assay: Combined SIEFED-ELISA measurement of total and active MPO released by PMA-activated equine neutrophils pre-incubated with polyphenols
Format: cell-based, horse
Conditions: for inhibition percentage on total enzyme (MPO) release / inhibition percentage on MPO activity (active fraction of MPO released): 10^-5 M, neutrophils pre-incubated 10 min at 37° C., activated 30 min with 8×10^−7 M PMA, supernatant
Protocol: The primary antibody(2), that captures the enzyme (MPO 1), is a rabbit IgG (3 μg/ml). Standard enzyme (MPO) or unknown sample is incubated 2 h at 37° C. After washing, the (peroxidase) activity of the enzyme (MPO) is detected by adding 100 μl of a 10 μM H2O2 solution and 40 μM of Amplex® Red (8) (10-acetyl-3,7-dihydroxyphenoxazine; from Molecular Probes) in phosphate buffer (50 mM, pH 7.5). The fluorescence is read during 30 min (at 37° C.) at 590 nm with a Fluoroskan Ascent apparatus (Labsystems). The volumes of the primary antibody(2) and the sample put in the wells, are 200 μl. Controls (blank) and dilutions of the samples are established with dilution buffer.
Enhancement of fluorescence was obtained when adding a defined concentration of nitrites ions (about 10 mM) to the Amplex® Red solution (8). The fluorescence response obtained in this SIEFED steps (part) of the combined SIEFED-ELISA bioassay is directly proportional to the enzymatically active fraction of the enzyme (equine MPO) present in the sample.
After the SIEFED detection, a washing (0.9% NaCl solution containing 0.1% tween 20) is performed before starting the ELISA part of the combined method; the immobilized antibody(2)—antigen(1) complex is incubated (2 h, 37° C.) with an excess (5 μg/ml) of guinea pig IgG, the secondary antibody (4). After washing, a third antibody (5) produced against guinea pig IgG is added. This third IgG (5) (goat IgG) is labeled with alkaline phosphatase (6) and recognizes the “sandwich” complex “primary antibody (2)—MPO(1)—secondary antibody”(4). After washing, phosphatase activity is detected by incubation (30 min, 37° C., in the darkness) with a paranitrophenyl phosphate solution (phosphatase substrate, Sigma). The reaction is stopped with NaOH and the absorbance (405 nm) is measured with a Multiscan Ascent apparatus (Labsystem). All the volumes added into the wells comprise 100 μl, except for washing (300 μl) and for the substrate solution (200 μl). Controls (blank) and dilutions of the standard enzyme (MPO) and samples were established with dilution buffer [PBS (20 mM phosphate, 137 mM NaCl and 2.7 mM KCl pH 7.4) to which 5 g/L bovine serum albumin and 0.1% tween 20 were added].
Neutrophils isolated from citrated blood of healthy horses were counted, suspended in phosphate buffer saline (PBS) at pH 7.4 and incubated 10 min at 37° C. with curcumin or THC at the final concentration of 10^−4, 10^−5 or 10^−6 M. After incubation and centrifugation (1000×g, 10 min), the neutrophils were resuspended in PBS and activated 30 min with 8×10^−7 M phorbol myristate acetate (PMA) followed by centrifugation and active and total enzyme (MPO) measurement in the supernatant by the combined SIEFED-ELISA specific bioassay. The effects of polyphenols on total and active fraction of enzyme (MPO) released by stimulated neutrophils were studied by pre-incubation of neutrophils with the drugs at various concentrations, before the neutrophil stimulation.

Structure (SMILES) | inhibition percentage on total enzyme (MPO) release (ELISA part) [%] | inhibition percentage on MPO activity (active fraction of MPO released) (SIEFED part) [%] | effect on the total enzyme (MPO) released by activated neutrophils (10^−4, 10^−5 or 10^−6 M, PMA-activated equine neutrophils, ELISA part) | effect on the active fraction of the enzyme (MPO) released by activated neutrophils (10^−4, 10^−5 or 10^−6 M, PMA-activated equine neutrophils, SIEFED part)
COc1cc(CCC(=O)CC(=O)CCc2ccc(O)c(OC)c2)ccc1O [THC, Tetrahydrocurcumin] | 18 | 22 |  | 
COc1cc(/C=C/C(=O)CC(=O)/C=C/c2ccc(O)c(OC)c2)ccc1O [curcumin, Curcumin] | 44 | 60 | dose dependent inhibitory effects | dose dependent inhibitory effects
